Results reported in patent US20210267948A1, “TREATMENT OF CANCER” (CITY OF HOPE, priority 2017, published 2021).

Tests used:
[1] = test system: multiple human cancer cell lines; assay: In vitro activity in multiple human cancer cell lines; assay type: cell-based; details: in most cases
HCC1937 tumors = assay: Orthotopic tumor model, HCC1937; assay type: in vivo, mouse; details: HCC1937 in mammary fat pads, NSG mice, daily oral 400 mg/kg, 28 days
Method: Orthotopic Tumor Model. Experiments in mice were conducted under a protocol approved by the IACUC of City of Hope. Because HCC1937 and HCC1937+BRCA1 cells form slow-growing tumors, they were implanted using MATRIGEL™ (Becton-Dickinson Biosciences). To establish tumors, 4×10^6 cells in 200 μL serum-free medium containing 50% MATRIGEL™ were injected into the mammary fat pads around the inguinal area of a pair of 8 week old female NSG mice. Once the initial tumors reached 13 mm in diameter, they were dissected out, minced into 3 mm pieces and implanted into the inguinal area of the mammary fat pads of the experimental mice. Tumors were measured over a 28-day period, and for each time point, the student t-test was used to determine the statistical significance between daily gavage with 400 mg/kg COH29 in 30% solutol and corresponding vehicle control. Thep value less than 0.05 (2 sides) was considered to indicate statistical significance

EJ5 cells (NHEJ pathway) = assay: NHEJ repair GFP reporter (EJ5-GFP); assay type: cell-based; details: 24 h
Method: The EJ2 cells were generated to evaluate Alt-NHEJ through monitoring the fluorescence intensity of GFP, and EJ5 cells were used to determine NJEJ, as described previously (23). Cells were seeded into 6-well plate and treated with COH29 or cisplatin at different concentration for 24 hours. The cells were then trypsinized, washed, and analyzed by flow cytometry.

A549 cells = assay: DDR proteins in A549 cells (Western blot, immunofluorescence); assay type: cell-based, human
Method: Immunofluorescence experiments were conducted as described previously (21,22). Specifically, A549 cells were grown on glass coverslips. After treatment with COH29 (1 or 10 μM) for 24 or 48 hours, cells were fixed with 4% paraformaldehyde for 10 min and permeabilized with TRITON™ X-100 (0.5%). The coverslips were washed with phosphate-buffered saline (PBS) and blocked with PBS-containing 2% bovine serum albumin (BSA), incubated with an Ab specific to FOXO3 or ATM-pS1981 or γ-H2AX or p53-pS15 (1:50-1:200 dilution), followed by Alexa 488-conjugated anti-rabbit or anti-mouse (1:200), Alexa 594-conjugated anti-goat (1:100) secondary Abs (Molecular Probes). Cells were incubated with 4′,6-diamidino-2-phenylindole (DAPI; Sigma) to stain the nuclei. Specific staining was visualized and images were captured with a Leica SP2 AOBS confocal laser scanning microscope. To measure foci-positive cells, ˜300 cells were used randomly captured by confocal microscopy. The percentages of considering foci-positive cells were calculated from cells containing at least five foci. Each error bar presented is the mean of standard deviation.
For subcellular fractionation, cells were trypsinized and washed with cold PBS solution twice. After centrifugation at 1,200 g for 5 min, cells were incubated in buffer (50 mM HEPES, pH 7.5, 150 mM NaCl, 1 mM EDTA) containing 0.2% NONIDET™ P-40 (NP-40), supplemented with protease inhibitors (5 μg/ml each of pepstatin, leupeptin, and aprotinin) and phosphatase inhibitors on ice for 5 min. Following centrifugation at 1,000 g for 5 min, the supernatant was collected (i.e., cytoplasmic fraction) and pellets were washed with the same buffer twice. The washed samples were extracted for 40 min on ice with fractionation buffer containing 0.5% NP-40 for nuclear fraction. […] Protein concentrations of all fractions were determined with Bio-Rad Protein Assay (Bio-Rad Laboratories, Hercules, Calif.). […] The immunoblots were visualized on film with the West-Q chemi-luminescence kit (GenDEPOT, Barker, Tex.).

[2] = GLP toxicity study in dogs; assay type: in vivo; details: for Toxicity: Beagles, top dose 42 mg/kg
Description: Toxicity studies in rats and dogs at doses equivalent to 10× that dose have not shown toxicity at 10 or 21 days.

O=C(Nc1nc(-c2ccc(O)c(O)c2)c(-c2ccccc2)s1)c1ccc(O)c(O)c1 [COH29, N-(4-(3,4-dihydroxyphenyl)-5-phenylthiazol-2-yl)-3,4-dihydroxybenzamide]
IC50 [1]: < 10 µM
growth of tumors vs vehicle (HCC1937 tumors): significantly (p=0.0007) suppressed
NHEJ repair efficiency (EJ5 cells (NHEJ pathway)): little effect
protein level of BRCA1 and Rad51 foci formation (A549 cells; A549, 24 h): suppressed
γ-H2AX, phospho-p53 and phospho-ATM in the nucleus (A549 cells; A549, BRCA1 wild-type, 48 h): induced accumulation
Rad51 expression in the nucleus (A549 cells; A549, BRCA1 wild-type, Western analysis): downregulated
Toxicity ([2]; 10 days): none
Toxicity ([2]; 21 days): none
NOAEL ([2]; beagle, dog, in vivo): 84 mg/kg/day
